Values after ≈ are worked out from the molar mass of the structure shown.
What follows are molecules tested on P.aeruginosa ATCC27853 (assay: Antibiotic activity: minimum inhibitory concentration (MIC)). Details: Pseudomonas aeruginosa; strain ATCC27853.
Assay type: cell-based
Method: (§1) Antibiotic activities were determined using measurement of minimum inhibitory concentrations by standard procedures referring to the Manual of Commercial Methods in Clinical Microbiology. Ed. Allan L. Truant. ASM Press (2002) and are reported as concentrations (μM).

| Molecule | MIC [µM] |
| --- | --- |
| NC1CC(O)C(CNC(=O)[C@@H](N)CC(=O)O)OC1OC1C(N)CC(N)C(OC2OC(CO)C(O)C(N)C2O)C1O (stereo partly drawn) [Compound 33] | > 64 |
| NC1CC(O)C(CNC(=O)C[C@H](N)C(=O)O)OC1OC1C(N)CC(N)C(OC2OC(CO)C(O)C(N)C2O)C1O (stereo partly drawn) [Compound 32] | > 64 |
| CCCCCCC(=O)OCC1OC(OC2C(N)CC(N)C(OC3OC(CN)C(OC(=O)CCCCCC)CC3N)C2O)C(OC(=O)CCCCCC)C(N)C1OC(=O)CCCCCC (stereo not drawn) [Compound 31] | 32 (≈ 29.3 µg/mL) |
| NC[C@H]1O[C@H](O[C@H]2[C@H](O)[C@@H](O[C@H]3O[C@H](CO)[C@@H](O)[C@H](N)[C@H]3O)[C@H](N)C[C@@H]2N)[C@H](N)C[C@@H]1O [Tobramycin, reference compound] | 2 (≈ 0.935 µg/mL) |
| NCC[C@H](O)C(=O)N[C@@H]1C[C@H](N)[C@@H](O[C@H]2O[C@H](CN)[C@@H](O)[C@H](O)[C@H]2O)[C@H](O)[C@H]1O[C@H]1O[C@H](CO)[C@@H](O)[C@H](N)[C@H]1O [Amikacin, reference compound] | 7.5 (≈ 4.39 µg/mL) |
| NCC1OC(OC2C(N)CC(N)C(OC3OC4COC(=O)CCCCCCCCCCC(=O)OC4C(N)C3O)C2O)C(N)CC1O (stereo not drawn) [Compound 30] | 64 (≈ 42.4 µg/mL) |

Same assay, conditions: strain ATCC27853

| Molecule | MIC [µM] |
| --- | --- |
| CCCCCCCCCCCCCCCC(=O)OCC1OC(OC2C(N)CC(N)C(OC3OC(CN)C(O)CC3N)C2O)C(O)C(N)C1O (stereo not drawn) [Compound 25, Tobramycin 6″-Palmitoyl Ester] | 16 (≈ 11.3 µg/mL) |
| Neomycin [reference compound] | 30 |

These molecules were tested on E.coli ATCC25922 in the same assay as above. Details: Escherichia coli; strain ATCC25922.
Assay type: cell-based
Method: as §1

| Molecule | MIC [µM] |
| --- | --- |
| NC1CC(O)C(CNC(=O)[C@@H](N)CC(=O)O)OC1OC1C(N)CC(N)C(OC2OC(CO)C(O)C(N)C2O)C1O (stereo partly drawn) [Compound 33] | > 32 |
